Results reported in ChEMBL document CHEMBL1201862, “PubChem BioAssay data set” (2004).
Activity calls are given as the source filed them.

How the values were obtained:
Protein skinhead-1 = molecular target: T1, Protein skinhead-1 (Caenorhabditis elegans, UniProt P34707); type: functional
T1 sequence (P34707 whole entry): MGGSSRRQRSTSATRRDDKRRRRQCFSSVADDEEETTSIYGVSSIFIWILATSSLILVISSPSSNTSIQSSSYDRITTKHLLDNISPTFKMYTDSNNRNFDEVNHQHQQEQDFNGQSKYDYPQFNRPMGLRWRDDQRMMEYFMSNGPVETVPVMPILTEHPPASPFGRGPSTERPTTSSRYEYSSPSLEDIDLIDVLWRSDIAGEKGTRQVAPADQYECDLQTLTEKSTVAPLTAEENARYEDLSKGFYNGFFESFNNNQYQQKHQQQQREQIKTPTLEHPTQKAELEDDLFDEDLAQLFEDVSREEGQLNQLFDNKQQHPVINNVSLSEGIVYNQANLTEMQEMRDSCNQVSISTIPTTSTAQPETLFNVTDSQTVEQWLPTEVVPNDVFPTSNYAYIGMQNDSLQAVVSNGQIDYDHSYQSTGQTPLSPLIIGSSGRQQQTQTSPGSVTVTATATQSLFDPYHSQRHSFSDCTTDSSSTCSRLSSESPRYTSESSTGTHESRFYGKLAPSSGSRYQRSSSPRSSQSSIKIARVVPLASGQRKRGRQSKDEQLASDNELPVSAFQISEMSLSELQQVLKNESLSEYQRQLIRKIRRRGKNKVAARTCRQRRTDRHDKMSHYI

[1] = molecular target: T2, Rac GTPase-activating protein 1 (Homo sapiens, UniProt Q9H0H5); assay: MgcRacGAP GTPase-activating activity inhibitors, confirmation, biochemical, ADP Hunter fluorescence, primary and confirmatory (AID 624330); type: functional
T2 sequence (Q9H0H5 whole entry): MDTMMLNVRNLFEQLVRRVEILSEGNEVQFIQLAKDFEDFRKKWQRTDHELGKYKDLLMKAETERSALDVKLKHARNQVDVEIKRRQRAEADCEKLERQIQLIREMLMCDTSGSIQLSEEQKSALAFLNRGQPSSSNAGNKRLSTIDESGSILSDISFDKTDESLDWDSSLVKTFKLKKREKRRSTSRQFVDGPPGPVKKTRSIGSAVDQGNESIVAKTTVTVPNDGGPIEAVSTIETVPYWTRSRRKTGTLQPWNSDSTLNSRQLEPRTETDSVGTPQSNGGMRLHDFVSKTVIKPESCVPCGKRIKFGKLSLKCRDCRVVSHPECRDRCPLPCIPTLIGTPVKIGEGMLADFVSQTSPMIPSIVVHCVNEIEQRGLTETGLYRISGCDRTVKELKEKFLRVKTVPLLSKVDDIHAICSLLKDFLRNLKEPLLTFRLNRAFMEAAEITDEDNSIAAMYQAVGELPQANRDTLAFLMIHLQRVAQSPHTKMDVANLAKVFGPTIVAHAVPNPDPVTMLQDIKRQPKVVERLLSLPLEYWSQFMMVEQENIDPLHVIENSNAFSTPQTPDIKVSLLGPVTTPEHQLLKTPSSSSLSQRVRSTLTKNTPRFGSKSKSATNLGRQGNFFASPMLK

H9c2 = assay: cells; type: functional, cell-based; conditions: Rattus norvegicus, H9c2, Myocardium;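 also: confirmatory concentration-response retest of ultra-high-throughput screening hits for modulation of myocardial damage; cell death induced by hydrogen peroxide oxidative stress; compound pretreatment for 60 min then peroxide exposure for 2 h; potency is for protecting the cells against peroxide damage rather than for killing them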
H4 = assay: Luminescence Cell-Based Dose Response HTS to Identify Activators of 5'UTR Stem-Loop Driven Prion Protein mRNA Translation in H4 Neuroglioblastoma Cells. [Related pubchem assays: 1829 (Project Summary), 1814 (Primary HTS)]; type: functional; conditions: Homo sapiens
[2] = ZM109 Env clade C HIV-1 fusion inhibitors, dose response, HeLa effector, CEM target cells, luciferase, cherry-pick (AID 652058); type: functional, cell-based
[3] = inhibitors of clade B AD8 Env fusion, dose response, cell-based, cherry-pick (AID 652062); type: functional;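 also: luciferase signal from cell-cell fusion driven by HIV-1 clade B AD8 Env; potency is for inhibitors of fusion seen as a drop in luminescence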
[4] = molecular target: T3, Replicative DNA helicase DnaB (Mycobacterium tuberculosis, UniProt P9WMR3); assay: DnaB intein splicing inhibitors, dose response, biochemical, cell-free fluorescence (AID 449749); type: functional
T3 sequence (P9WMR3 whole entry): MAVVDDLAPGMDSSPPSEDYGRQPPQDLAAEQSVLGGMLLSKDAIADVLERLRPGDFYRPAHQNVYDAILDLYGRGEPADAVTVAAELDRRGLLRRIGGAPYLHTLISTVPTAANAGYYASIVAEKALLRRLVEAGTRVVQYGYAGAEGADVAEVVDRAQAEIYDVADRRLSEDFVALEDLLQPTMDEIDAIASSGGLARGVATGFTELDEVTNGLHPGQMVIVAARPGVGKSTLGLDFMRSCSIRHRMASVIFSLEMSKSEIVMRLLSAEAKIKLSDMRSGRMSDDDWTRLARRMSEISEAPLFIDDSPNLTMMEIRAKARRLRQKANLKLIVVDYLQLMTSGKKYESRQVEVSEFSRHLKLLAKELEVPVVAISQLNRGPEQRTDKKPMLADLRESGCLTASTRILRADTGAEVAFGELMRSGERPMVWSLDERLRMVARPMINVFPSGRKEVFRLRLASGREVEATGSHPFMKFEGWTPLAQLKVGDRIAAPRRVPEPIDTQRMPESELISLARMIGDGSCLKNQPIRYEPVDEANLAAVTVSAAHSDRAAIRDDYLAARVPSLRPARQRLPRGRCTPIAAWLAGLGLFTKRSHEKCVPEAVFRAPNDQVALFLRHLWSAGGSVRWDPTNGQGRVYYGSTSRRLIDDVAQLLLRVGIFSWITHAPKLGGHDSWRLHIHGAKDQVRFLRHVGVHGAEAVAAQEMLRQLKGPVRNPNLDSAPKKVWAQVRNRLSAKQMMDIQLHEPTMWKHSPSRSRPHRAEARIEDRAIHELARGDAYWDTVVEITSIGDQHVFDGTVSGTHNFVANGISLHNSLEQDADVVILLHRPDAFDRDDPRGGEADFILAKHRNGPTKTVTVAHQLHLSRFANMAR

Protein RecA = molecular target: T4, Protein RecA (Mycobacterium tuberculosis, UniProt P9WHJ3); assay: Fluorescence Cell-Free Homogeneous Dose Retest to Identify Inhibitors of RecA-Intein Splicing Activity. [Related pubchem assays (depositor defined):AID2097, AID2223, AID489010, AID492950]; type: functional
T4 sequence (P9WHJ3 whole entry): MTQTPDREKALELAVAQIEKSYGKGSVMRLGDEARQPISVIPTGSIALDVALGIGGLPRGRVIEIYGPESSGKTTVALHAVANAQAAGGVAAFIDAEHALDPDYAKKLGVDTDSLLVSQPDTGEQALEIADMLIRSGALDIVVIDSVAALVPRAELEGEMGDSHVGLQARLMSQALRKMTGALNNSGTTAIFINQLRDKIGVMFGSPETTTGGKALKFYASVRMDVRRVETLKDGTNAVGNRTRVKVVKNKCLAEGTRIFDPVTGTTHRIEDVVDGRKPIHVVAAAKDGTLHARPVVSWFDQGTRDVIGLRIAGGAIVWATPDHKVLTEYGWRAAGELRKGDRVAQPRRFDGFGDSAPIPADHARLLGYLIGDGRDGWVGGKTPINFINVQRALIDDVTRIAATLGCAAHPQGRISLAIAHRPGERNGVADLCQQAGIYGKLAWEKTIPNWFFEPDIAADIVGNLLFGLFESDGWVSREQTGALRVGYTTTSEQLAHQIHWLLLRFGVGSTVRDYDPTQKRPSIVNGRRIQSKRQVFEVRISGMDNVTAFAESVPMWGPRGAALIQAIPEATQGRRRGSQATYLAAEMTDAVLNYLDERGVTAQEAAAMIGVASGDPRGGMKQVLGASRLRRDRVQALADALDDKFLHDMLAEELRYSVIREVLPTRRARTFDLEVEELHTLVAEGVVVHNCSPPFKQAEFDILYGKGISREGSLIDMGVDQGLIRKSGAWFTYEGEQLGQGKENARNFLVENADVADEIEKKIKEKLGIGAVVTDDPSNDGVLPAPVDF

Cytochrome P450 3A4 = Cytochrome P450 3A4 (Homo sapiens, UniProt P08684);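 also: CYP3A4 tested as one member of a cytochrome P450 panel screen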
Cytochrome P450 2C9 = Cytochrome P450 2C9 (Homo sapiens, UniProt P11712)
Chain of Cytochrome P450 2C9 (P11712 whole entry): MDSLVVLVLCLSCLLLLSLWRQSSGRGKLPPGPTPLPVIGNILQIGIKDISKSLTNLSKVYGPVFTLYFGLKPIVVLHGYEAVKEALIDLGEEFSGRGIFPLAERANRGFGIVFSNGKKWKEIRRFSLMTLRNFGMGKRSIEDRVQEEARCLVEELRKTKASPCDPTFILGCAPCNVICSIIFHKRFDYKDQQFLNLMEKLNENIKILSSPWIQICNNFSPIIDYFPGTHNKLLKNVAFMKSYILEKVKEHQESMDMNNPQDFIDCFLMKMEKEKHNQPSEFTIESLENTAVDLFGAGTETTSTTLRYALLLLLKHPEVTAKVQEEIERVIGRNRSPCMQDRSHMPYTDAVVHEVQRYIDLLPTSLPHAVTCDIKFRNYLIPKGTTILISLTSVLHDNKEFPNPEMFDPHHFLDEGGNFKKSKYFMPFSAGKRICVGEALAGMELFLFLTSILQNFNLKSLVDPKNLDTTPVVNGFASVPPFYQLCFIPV

Chain of Cytochrome P450 3A4 (P08684 whole entry): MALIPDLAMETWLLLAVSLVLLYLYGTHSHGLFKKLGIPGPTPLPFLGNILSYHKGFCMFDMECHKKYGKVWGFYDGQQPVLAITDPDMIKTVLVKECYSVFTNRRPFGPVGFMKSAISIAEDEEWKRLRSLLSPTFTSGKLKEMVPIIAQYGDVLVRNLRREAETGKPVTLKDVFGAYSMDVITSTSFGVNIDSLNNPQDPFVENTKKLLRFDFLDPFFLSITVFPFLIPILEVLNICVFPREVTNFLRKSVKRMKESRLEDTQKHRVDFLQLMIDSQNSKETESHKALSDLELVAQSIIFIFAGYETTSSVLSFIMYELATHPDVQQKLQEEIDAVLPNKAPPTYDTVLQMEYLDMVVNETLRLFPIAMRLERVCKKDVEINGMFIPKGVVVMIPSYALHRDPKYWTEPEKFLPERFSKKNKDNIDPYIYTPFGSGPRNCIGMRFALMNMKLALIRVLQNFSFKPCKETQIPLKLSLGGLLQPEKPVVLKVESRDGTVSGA

Fc1ccc(-c2csc(Nc3ccccn3)n2)c(F)c1
IC50 (Protein skinhead-1): > 100 µM (inactive)

CCOC(=O)C1CCN(Cc2c[nH]nc2-c2ccccc2)CC1
IC50 [1]: 131 µM (active)

Oc1nnc(-c2cccs2)c2ccccc12
IC50 (H9c2): 19.4 µM (active)

COc1ccc(S(=O)(=O)N2CC(O)CC2C(=O)OCc2nc(O)c3c(C)c(C)sc3n2)cc1 (stereo unspecified)
IC50 (H9c2): 31 µM (inactive)

N#C/C(=C\c1ccc(N2CCCCC2)o1)C(=O)Nc1cccc(Br)c1
EC50 (H4): 0.102 µM (active)

COC(=O)c1ccc(CSc2ccc3nnc(-c4cccc(F)c4)n3n2)o1
IC50 (H9c2): > 79 µM (inactive)

CCN(CC)CCN1C(=O)C(O)=C(C(=O)c2cnn(-c3ccccc3)c2C)C1c1ccc(C)o1 (stereo unspecified)
IC50 (Protein skinhead-1): > 100 µM (inactive)

CCOC(=O)C1CCCN(Cc2nc(N)nc(Nc3ccc(OC)cc3)n2)C1 (stereo unspecified)
AC50 [2]: 4.93 µM (active) | AC50 [3]: 27 µM (active)

O=[N+]([O-])c1ccc(Oc2ccc(F)cc2)c2ccncc12
AC50 [4]: > 380 µM (inactive) | EC50 (Protein RecA): 1.4 µM (active) | IC50 (Protein skinhead-1): > 100 µM (inactive)

COc1ccccc1-c1c(C(F)(F)F)oc2cc(OC(=O)c3cccc([N+](=O)[O-])c3C)ccc2c1=O
IC50 (Protein skinhead-1): > 100 µM (inactive) | AC50 (Cytochrome P450 3A4): 12.6 µM (inconclusive) | AC50 (Cytochrome P450 2C9): 0.447 µM (inconclusive)

CCn1c(C)c(C2=CCN(S(=O)(=O)c3ccccc3)CC2)c2ccccc21
IC50 (Protein skinhead-1): > 100 µM (inactive)

COc1ccc(NC(=O)COc2cccc3c2CCNC3=O)cc1
IC50 (H9c2): > 79 µM (inactive)

CCCCCCOC(=O)c1ccc(OC(=O)c2cccnc2)cc1
AC50 [4]: 3.69 µM (active) | EC50 (Protein RecA): 3.58 µM (active)

Cc1ccc(C)c(N/C([S-])=C(/C(=O)c2ccc(OC(F)F)cc2)[n+]2ccccc2)c1
AC50 [4]: 36.6 µM (active) | EC50 (Protein RecA): 11.5 µM (active)

Cc1cc(C)n2c(SCc3c(C)noc3C)nnc2n1
IC50 (Protein skinhead-1): > 100 µM (inactive)

O=C(NCC(=O)N(Cc1cccs1)C(C(=O)NC1CCCCC1)c1ccncc1)c1ccco1 (stereo unspecified)
IC50 (Protein skinhead-1): > 100 µM (inactive)

COc1ccc(NC2CCCN(C(=O)CSc3ccccc3)C2)cc1OC (stereo unspecified)
IC50 [1]: 60 µM (active)

COc1ccc(NC(=O)/C(C#N)=C/c2ncc([N+](=O)[O-])n2C)c(OC)c1
AC50 [4]: 67.5 µM (active) | EC50 (Protein RecA): 15.6 µM (active)

CCCNCc1cc(Cl)c(OCC)c(Cl)c1
IC50 (Protein skinhead-1): > 100 µM (inactive)

c1ccc(OCc2nc(-c3cccs3)no2)cc1
IC50 (Protein skinhead-1): 31.5 µM (active)

CCOc1cccc2cc(C(=O)N3CCc4ccccc43)c(=O)oc12
IC50 (Protein skinhead-1): > 100 µM (inactive)

COCCCn1c(SCC(=O)NC(C)C)nnc1-c1ccccc1
IC50 (Protein skinhead-1): > 100 µM (inactive)

Cc1[nH][nH]c(=O)c1C(c1ccc(N(C)C)c(Br)c1)c1c(C)[nH][nH]c1=O
AC50 [4]: 0.467 µM (active) | EC50 (Protein RecA): 0.274 µM (active)

Cn1c(=O)[nH]c(=O)c2c1nc(NCCc1ccccc1)n2CC(O)COc1ccccc1 (stereo unspecified)
IC50 (H9c2): > 79 µM (inactive)

Cc1ccc(C(=O)Nc2cccc(C(F)(F)F)c2)cc1NC(=O)c1csc(-c2ccncc2)n1
IC50 (H9c2): > 79 µM (inactive)

O=C(c1c[nH]c(C(=O)C(Cl)(Cl)Cl)c1)c1ccccc1Br
AC50 [4]: 6.31 µM (active) | EC50 (Protein RecA): 6.33 µM (active)

COc1ccc2nc(O)c(CNC3CCCCC3)cc2c1
IC50 (H9c2): 46.3 µM (inactive)

Clc1ccc(-c2nnsc2SCc2ccccc2)cc1
IC50 (Protein skinhead-1): > 100 µM (inactive)

CC(C)(C)OC(=O)CNC(=O)c1[nH]cnc1C(=O)Nc1ccc(CNC(=O)OC(C)(C)C)cc1
IC50 (H9c2): > 79 µM (inactive)

C[C@H](CO)N1C[C@H](C)[C@@H](CN(C)S(=O)(=O)c2cccs2)Oc2ccc(NC(=O)Nc3ccccc3)cc2C1=O
IC50 (H9c2): 11.9 µM (active)

COc1ccc(C=NNC(=O)c2cc(C)oc2C)cc1O
IC50 [1]: 107 µM (active)

Nc1nc(N)c2[nH]c(S)nc2n1
IC50 [1]: 163 µM (active)

Cc1cccc(NC(=O)c2[nH]cnc2C(=O)NCCCCNC(=O)c2nc[nH]c2C(=O)Nc2cccc(C)c2)c1
IC50 (H9c2): > 79 µM (inactive)

Cc1nn(Cc2ccc(C(=O)N3CCN(C(=O)c4ccco4)CC3)o2)c(C)c1[N+](=O)[O-]
IC50 (H9c2): 21.9 µM (active)

O=C(Nc1cc(C(F)(F)F)ccc1N1CCCCC1)C1=COCCO1
IC50 (Protein skinhead-1): > 100 µM (inactive)

C/C(CC(=O)Nc1cc(C)ccn1)=N\NC(=O)c1ccccc1C
AC50 [4]: 26.8 µM (active) | EC50 (Protein RecA): 6.24 µM (active)

CC(C)NC(=O)Nc1ccc2c(c1)C(=O)N([C@@H](C)CO)C[C@H](C)[C@H](CN(C)C(=O)Nc1ccc(F)cc1)O2
AC50 [2]: 22.4 µM (active) | AC50 [3]: 58.4 µM (active)

O=C(CCCCCNC(=O)c1ccccc1)N/N=C/c1ccc(O)cc1O
IC50 [1]: 69.9 µM (active)

O=C1CC(Nc2ccc(N3CCOCC3)cc2)C(=O)N1Cc1ccccc1 (stereo unspecified)
IC50 [1]: 140 µM (active)
